{
  "source": "patent US6861233B1",
  "about": "“Method of screening for triacyglycerol hydrolase inhibitors” (Glaxo Group Limited, priority 1999, dated 2005)",
  "key": {"human liver TGH": {"biological_target": "T1, human liver TGH (Homo sapiens, UniProt P23141)", "T1 construct": "the enzyme from microsomal membranes of liver tissues was solubilised by the zwitterionic detergent; from tissue; host or cells: human liver (microsomal membranes)", "T1 sequence (P23141 21-567 limits assumed)": "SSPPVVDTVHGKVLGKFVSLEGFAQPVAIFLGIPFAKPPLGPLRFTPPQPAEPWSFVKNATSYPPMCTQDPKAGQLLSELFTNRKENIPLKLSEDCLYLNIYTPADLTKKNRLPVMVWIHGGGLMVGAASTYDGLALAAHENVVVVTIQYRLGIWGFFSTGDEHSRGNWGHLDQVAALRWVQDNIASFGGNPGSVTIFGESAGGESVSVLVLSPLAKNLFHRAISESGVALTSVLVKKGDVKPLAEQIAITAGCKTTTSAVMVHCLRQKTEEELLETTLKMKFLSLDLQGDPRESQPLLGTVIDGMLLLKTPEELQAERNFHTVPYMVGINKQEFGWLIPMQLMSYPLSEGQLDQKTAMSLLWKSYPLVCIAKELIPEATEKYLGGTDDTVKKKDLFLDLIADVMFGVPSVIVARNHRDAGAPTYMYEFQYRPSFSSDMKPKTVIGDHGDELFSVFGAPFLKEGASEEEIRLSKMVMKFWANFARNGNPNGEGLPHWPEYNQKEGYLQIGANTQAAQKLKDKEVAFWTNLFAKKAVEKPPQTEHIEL", "experiment": "Effect of test agents on human liver TGH (4-methylumbelliferyl butyrate fluorogenic substrate)", "assay_type": "biochemical", "conditions": "purified human liver TGH 1.16 nM, 15-min pre-incubation, 4-MU-butyrate substrate; read-out: concentration which resulted in 50% inhibition of TGH", "experimental": "Human liver TGH was purified according to Lehner and Verger's protocol described for the porcine liver TGH [13). Briefly, the enzyme from microsomal membranes of liver tissues was solubilised by the zwitterionic detergent 3-[(3 cholamidopropyl)dimethylammonio]-1-propanesulfonate (CHAPS) and was purified to apparent homogeneity by sequential chromatography on Q-sepharose and hydroxyapatite.\nThe enzymatic activity of TGH was evaluated with the fluorogenic substrate 4-methylumbelliferyl butyrate (4-MU-butyrate). Briefly, 10 μl of a solution of 25 mM of 4-MU-butyrate in tetrahydrofuran was injected in 2 ml of a buffer containing Tris (20 mM), pH 8.0, EDTA (1 mM) and taurodeoxycholate (300 μM). TGH activity was assayed at 1.16 nM in a final volume of 100 μl. The compound was dissolved in DMSO to be tested at various concentrations (from 1 nM to 2 μM) and was incubated with the enzyme 15-min prior to the addition of 20 μl of the substrate, which gives the starting point of the enzymatic reaction. […]\nThe basal level of fluorescence of the substrate was evaluated in a reaction mixture of 70 μl of buffer, 10 μl of DMSO (at the appropriate dilution) and 20 μl of substrate, and was subtracted from each other data. Rates of lipolysis were determined from continuous increase in fluorescence intensity at 460 nm (Excitation: 355 nm)."}, "[1]": {"biological_target": "T2, lipoprotein lipase (LPL) from bovine milk (Bos taurus, UniProt P11151)", "T2 construct": "lipoprotein lipase (LPL) from bovine milk; from tissue; host or cells: bovine milk", "T2 sequence (P11151 29-478)": "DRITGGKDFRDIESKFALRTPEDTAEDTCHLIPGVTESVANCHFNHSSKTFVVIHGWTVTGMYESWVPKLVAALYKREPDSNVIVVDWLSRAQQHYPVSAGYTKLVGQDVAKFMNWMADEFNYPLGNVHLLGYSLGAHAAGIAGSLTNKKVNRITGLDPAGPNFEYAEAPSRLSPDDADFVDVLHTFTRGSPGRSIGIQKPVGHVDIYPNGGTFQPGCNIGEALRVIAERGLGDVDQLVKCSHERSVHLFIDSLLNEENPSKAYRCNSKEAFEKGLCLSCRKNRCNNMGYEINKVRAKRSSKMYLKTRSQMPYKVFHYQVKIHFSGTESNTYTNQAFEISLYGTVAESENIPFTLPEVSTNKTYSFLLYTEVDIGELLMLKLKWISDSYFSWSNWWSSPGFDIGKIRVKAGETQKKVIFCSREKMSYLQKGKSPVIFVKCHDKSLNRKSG", "experiment": "Effect of TGH inhibitors on lipoprotein lipase activity (radiolabelled trioleoylglycerol hydrolysis)", "assay_type": "biochemical", "conditions": "tested at 5 μM, incubated with the enzyme 15-min prior to substrate", "experimental": "In order to evaluate the specificity of TGH inhibitors toward TGH, test compound was tested on the enzymatic activity of lipoprotein lipase (LPL) from bovine milk. For this purpose radiolabelled trioleoylglycerol (250 μM, specific activity 1 mCi/mmole) was emulsified in mixture of 10% gum arabic by sonication. Long-chain triacylglycerol hydrolysis was assayed in a final volume of 200 μl containing LPL (1.5 μg/ml), Tris (50 mM), pH 8.0; MgCl2 CaCl2 (1 mM), and 150 mM NaCl with 1 mg/ml BSA as a fatty acid acceptor for 30 min at 37° C. The reaction was terminated with the addition of 3.25 ml of methanol/chloroform/heptane (3.85:3.42:2.73 by volume); 0.3 ml of 150 mM NaCl, lipid carriers (100 μg of unlabelled oleic acid), and 50 μl of 1 N NaOH. The mixture was vortexed and centrifuged. One ml of the upper phase (containing the fatty acids that have been hydrolyzed) was mixed with 10 ml of Cytoscint and counted. Test compound is incubated with the enzyme 15 minutes prior to the addition of the substrate."}, "normal fed hamsters": {"tested_on": "normal fed hamsters", "experiment": "Hypolipidemic activity of the TGH inhibitor in hamster", "assay_type": "in vivo", "conditions": "oral, 25 mg/kg twice a day for 3 days", "experimental": "Ten normal fed hamsters were randomly allocated into 2 groups. Animals from one group were orally gavaged with a test TGH inhibitor in DMSOI Labrafil (10/90%), 25 mg/kg, twice a day for 3 days while the animals from the other group were gavaged with the solvent (DMSOI/abrafil) twice a day for 3 days. The animals were sacrificed 4 hours following the last administration and the plasma lipids and lipoproteins were analyzed.\nTotal cholesterol (TC) and triglyceride (TG) levels in plasma were determined enzymatically with reagents from Bio Merieux. VLDL/LDL lipoprotein fractions were separated from the HDL lipoproteins by gradient centrifugation (d=1.063). Cholesterol in the VLDL/LDL as well as in the HDL fraction was also determined using the Bio Merieux kit. Apolipoprotein B-100 (Apo-B100) in the VLDL/LDL fraction was visualized by using SDS-PAGE under reducing conditions using resolving gels containing a 5% to 12% gradient."}, "[2]": {"conditions": "4 hours after last administration"}},
  "data": [
    {"compound": "Cc1cccc(NN=C(C(=O)c2cccs2)C(=O)C(F)(F)F)c1", "note": "[4,4,4-trifluoro-2-[2-(3-methylphenyl)hydrazono]-1-(2-thienyl)butane-1,3-dione]", "values": [
      {"measurement": "IC50", "setting": "human liver TGH", "result": 4, "unit": "nM"},
      {"measurement": "effect on the enzymatic activity of LPL", "setting": "[1]", "result": "did not affect"},
      {"measurement": "HDL cholesterol level", "setting": "normal fed hamsters; [2]", "result": "not significantly affected"},
      {"measurement": "reduction in VLDL/LDL cholesterol (from the solvent treated animals)", "setting": "normal fed hamsters; [2]", "result": 40, "unit": "%"},
      {"measurement": "reduction in the plasma TG concentration (from the solvent treated animals)", "setting": "normal fed hamsters; [2]", "result": "−55", "unit": "%"},
      {"measurement": "ApoB100 decrease compared to control animals", "setting": "normal fed hamsters; VLDL/LDL fraction, SDS-PAGE", "result": "−39", "unit": "%"}
    ]}
  ]
}
